Columns and labels:
LAMA-84 cells [1] = experiment: PMA-induced megakaryocytic differentiation of LAMA-84 cells (morphology, CD41/CD71 flow cytometry, PI ploidy); assay type: cell-based, Human
Description: LAMA-84 cells were maintained in RPMI1640 containing 10% fetal calf serum, 100 U/ml penicillin, 100 μg/ml streptomycin and 2 mM glutamine. To induce differentiation, the cell culture was supplemented with 0.6-5 ng/ml PMA or 50 μM Hemin and cells were harvested and analyzed 1-5 days following treatment.
(§1) To determine the extent of maturation toward MKs 1×10^6 cultured cells (LAMA-84 or CD34+ cells) were washed and then labeled with anti-CD41-FITC (GpIIb/IIIa, BD Bioscience, USA), or anti CD71-FITC or combination of anti-CD33-FITC, anti-CD41-PE, and CD34-APC (Beckman Coulter, USA) and analyzed using FACScalibur (Becton Dickinson, USA) for the percentage of CD41^+ cells generated.
(§2) To determine the amount of ploidy, differentiated LAMA-84 cells were fixed overnight in 75% ethanol at 4° C., labeled with propidium iodide (PI, 50 μg/ml) and analyzed using FACScalibur. Fourteen day differentiated CD34+ were analyzed quantitatively under a microscope following May Grumwald/Giemsa staining for the number of nuclei per cell. Only cells with MK morphology were analyzed.
LAMA-84 cell differentiation following PMA treatment was studied via morphological staining of the cells with May Grunwald/Giemsa and via flow cytometry analysis of CD41 (MK marker) and CD71 (erythroid marker) expression. Moreover, ploidy, a marker of MK differentiation, was also determined by flow cytometry using propidium iodide (PI). A range of PMA concentrations was tested and differentiation was obtained at 0.6-10 ng/ml PMA.

Livin, Survivin, XIAP = experiment: Western blot of IAP family proteins during LAMA-84 differentiation; assay type: cell-based, Human
Description: Whole cell lysates were prepared from 0.25-1×10^6 cells using 100 μl lysis buffer [20 mM Tris-HCl, 2 mM EDTA, 6 mM β-Mercaptoethanol, 1% Nonidet P-40 (NP-40), 0.1% SDS and protease inhibitors] at 4° C. for 20 min, with vigorous vortex mixing. Antibodies used were: monoclonal antibody against Livin (clone 88C570) (Imgenex, USA) diluted 1:3000 and Survivin 6E4 monoclonal antibody (Cell Signaling Technology, USA), followed by Envision-HRP (DAKO, Denmark) as a secondary antibody; Polyclonal antibody against XIAP (Cell Signaling Technology, USA), followed by anti-rabbit IgG HRP-linked antibody (Cell Signaling Technology, USA) as a secondary antibody. For immunoprecipitation, equal amounts of protein lysates were pre-cleared with Protein A/G-Agarose (Santa Cruz, USA) together with 1 μg of mouse IgG. Livin was immunoprecipitated from the cleared lysates (using clone 88C570) and the immune complexes were precipitated with Protein A/G-Agarose.
The expression of anti-apoptotic proteins of the […] (IAPs) during the differentiation of LAMA-84 cells towards MKs was analyzed by Western blot analysis. […] Note that in contrast to Livin, the level of Survivin decreased when cells were treated with PMA (FIG. 2E).

LAMA-84 cells [2] = experiment: Release of CD41+ platelet-like particles from LAMA-84 cultures (flow cytometry); assay type: cell-based, Human
Description: (§3) Platelets release into the differentiated cultures was assessed via flow cytometry analysis of the supernatants. Specifically, the culture medium was collected and centrifuged at 150×g for 20 minutes to remove the nucleated cells. The supernatant was then centrifuged at 500×g for 20 minutes to pellet the platelets. Sediments containing platelets and platelet-like particles were resuspended in culture medium in 500 μl aliquots and labeled using anti-CD41-FITC. Cells were analyzed by FACScalibur for CD41 expression and log amplification of forward scatter (FCS) and side scatter (SSC).

LAMA-84 derived PLPs = experiment: Aggregation of LAMA-84 derived platelet-like particles (AGGRAM aggregometer); assay type: cell-based, Human; conditions: PMA treated LAMA-84 culture-derived PLPs
Description: Platelets and Platelet like particles generated from platelets-poor plasma e.g. LAMA-84 differentiated cells were tested for their functionality in aggregation assays using an AGGRAM aggregometer (Helena Laboratories, Beaumont, Tex.) according to the manufacturer's instructions using various agonists: adenosine diphosphate (ADP) (11 μM), arachidonic acid (AA) (1.6 μM), Epinephrine (50 μM), Ristocetin (1.6 mM) (Diamed AG, Morat, Switzerland) or collagen (5 μg/ml) (Helena Laboratories, Beaumont, Tex.).

caspase-3 = experiment: Caspase-3 activity in LAMA-84 cell extracts (CaspACE colorimetric); assay type: cell-based, Human; conditions: day 4, PMA treated LAMA-84 stably over-expressing construct
Description: Extracts from 1×10^6 cells were prepared by the freeze-thaw method assayed for caspase-3 activity using CaspACE™ Assay System, Colorimetric (Promega, USA), according to manufacturer's instructions.
To address the mechanism of action of Livin in MKs differentiation, LAMA-84 cells were stably transfected to over-express Livin and the expression and effects of Livin protein during MKs differentiation were tested by means of Western blot analysis, caspase-3 activity, CD41 expression evaluated by flow cytometry and platelets functionality evaluated by aggregation assay (FIGS. 4A-4D). Specifically, control LAMA-84 cells (EV, empty vector) and LAMA-84 cells stably over expressing wild-type Livin or Livin mutant lacking pro-apoptotic activity (LivinRING) were treated with PMA for 5 Days. Cells were harvested at 12, 24, 48 and 96 hours for evaluation.

Human CD34+ cells [3] = experiment: Megakaryocyte differentiation of cord blood CD34+ cells with SCF and TPO (CD41, CD33, nuclei number, Western blot); assay type: cell-based
Description: Human CD34+ cells were cultured in Iscove's medium (IMDM) (1×10^5 cells/well) and induced to differentiate into MKs in the presence of 10 ng/ml stem cell factor (SCF) and 50 ng/ml thrombopoietin (TPO), freshly supplemented every 3 days. Cells were harvested and analyzed on day 14.
293T cells were infected to produce the virus and supernatant from 48 and 72 hours were infected into both LAMA-84 and CD34+ cells during their differentiation induction phase. In order to over-express Livin both LAMA-84 and CD34+ cells were infected following 1 day of differentiation with pWZL IRES-blasticidin vector expressing wild-type Livin (Livin β), LivinRING (Livin β RING), or empty vector (EV). For down-regulating expression of endogenous Livin, LAMA-84 were transfected by electroporation with pSUPER-Livin-2 (Livin siRNA) or pSUPER-luc (control siRNA) vectors^35 together with pWZL IRES-blasticidin 1 day following differentiation initiation. For down-regulating expression of endogenous Livin in CD34+ cells, cells were infected 1 day after differention with supernatant containing the pSUPER viruses generated by 293T cells.
as §1, §2
To investigate the effect of Livin on primary MK progenitors, human CD34+ cells isolated from cord blood samples, were transduced with Livin, LivinRING or control empty vector and grown for 14 days under MK differentiating conditions with the addition of stem cell factor (SCF) and thrombopoeitin (TPO)^41. At the terminal stages of primary MKs maturation CD34+ cell cultures were examined morphologically, analyzed for CD41 expression and polyploidy via flow cytomery, and Livin expression and cleavage via Western Blot.

Human CD34+ cells [4] = experiment: CD41+ platelets released from differentiated CD34+ cultures (flow cytometry); assay type: cell-based; conditions: day 14, SCF and TPO
Description: as §3
The following experiments evaluated whether functional platelets were generated from the human CD34^+ cell cultures that were transduced with Livin, LivinRING or control empty vector and grown for 14 days under MK differentiating conditions with the addition of SCF and TPO. Platelets released into the media were characterized for CD41 expression and functionality by CD62P up regulation via flow cytometry.

[5] = system: platelets derived from CD34+ cultures; experiment: Platelet activation by CD62P expression, platelets from CD34+ cultures; assay type: cell-based, Human; conditions: platelets from over-expressing CD34+ cultures
Description: Since the number of platelets generated from CD34+ cultures was low, platelets derived from these cultures were stimulated for 15 minutes at room temperature (RT) with ADP or AA and activation was assessed via flow cytometry analysis of CD62P (Pselectin)-PE (Beckman Coulter) expression (up regulation of CD62P implies activation).

Molecule: CCCCCCCCCCCCCC(=O)O[C@@H]1[C@@H](C)[C@@]2(O)[C@@H](C=C(CO)C[C@]3(O)C(=O)C(C)=C[C@@H]23)[C@@H]2C(C)(C)[C@]12OC(C)=O [PMA, Phorbol myristate acetate]
- Ploidy (PI flow cytometry) (LAMA-84 cells [1]; 4 days of exposure to 5 ng/ml PMA): underwent polyploidization (8N, 16N and 32N)
- CD41 expression (percent CD41 positive cells) (LAMA-84 cells [1]; 4 days, 5 ng/ml PMA, untreated 8.8%±5.6%): 81.9%±10%
- Morphology (May Grunwald/Giemsa) (LAMA-84 cells [1]; LAMA-84 cells after PMA induction): marked increase in cell size and extensive multinuclearity
- PMA concentration at which differentiation was obtained (LAMA-84 cells [1]; LAMA-84 cells, range of PMA concentrations tested): 0.6 to 10 ng/mL
- Level of full length XIAP (Livin, Survivin, XIAP; PMA differentiation, cleaved 30 kDa fragment appears): dose dependent significant decrease
- Livin protein expression (Livin, Survivin, XIAP; PMA-induced differentiation, not detected in untreated cells): up-regulated
- Survivin level (Livin, Survivin, XIAP; cells treated with PMA): decreased
- Percentage of CD41+ PLPs released to culture medium (LAMA-84 cells [2]; after incubation with PMA, untreated 6.5%±2.2%): 24.3%±3.6%
- Aggregation of PLPs in response to Epinephrine, collagen, ADP (LAMA-84 derived PLPs): aggregated

Molecule: Hemin
- CD41 expression levels (LAMA-84 cells [1]; Hemin, erythroid differentiation negative control): did not increase CD41 expression levels
- Levels of IAP family proteins tested (Livin, Survivin, XIAP; Hemin negative control): did not regulate the levels

B1: wild-type Livin: Livin β (SEQ ID NO: 5 cDNA) over-expressed from pWZL IRES-blasticidin retroviral vector (protein, listed as Homo sapiens)
chain: MGPKDSAKCLHRGPQPSHWAAGDGPTQERCGPRSLGSPVLGLDTCRAWDHVDGQILGQLRPLTEEEEEEGAGATLSRGPAFPGMGSEELRLASFYDWPLTAEVPPELLAAAGFFHTGHQDKVRCFFCYGGLQSWKRGDDPWTEHAKWFPSCQFLLRSKGRDFVHSVQETHSQLLGSWDPWEEPEDAAPVAPSVPASGYPELPTPRREVQSESAQEPGARDVEAQLRRLQEERTCKVCLDRAVSIVFVPCGHLVCAECAPGLQLCPICRAPVRSRVRTFLS
- Cleavage of Livin (Western blot) (Livin, Survivin, XIAP; LAMA-84 over-expressing wild-type Livin, PMA, 96 h): underwent cleavage only at the terminal stage of differentiation
- Number of CD41+ PLPs versus control (empty vector) cells (LAMA-84 cells [2]; day 4, PMA treated LAMA-84 over-expressing construct): produced more PLPs
- Caspase-3 enzyme activity (caspase-3): induced caspase-3 activation
- Increase in percentage of CD41 stained cells compared to empty vector (Human CD34+ cells [3]; day 14, SCF and TPO, p=0.029): 3.7±1 fold
- CD33 expression of differentiated CD41+ cells (Human CD34+ cells [3]; day 14, n=9, control cells 7.4±6.9%): 22.6±39.8%
- Multi-nucleated MKs (≥4 nuclei) (Human CD34+ cells [3]; day 14, versus LivinRING or empty vector (p=0.01 and 0.02)): significant increase
- Livin and tLivin protein levels (Western blot) (Human CD34+ cells [3]; day 14, versus naive and empty vector CD34+ cultures): robust levels
- Platelets produced (CD41+) compared to empty vector control (Human CD34+ cells [4]): 4.3±1 fold
- Platelet activity in response to arachidonic acid (CD62P up regulation) [5]: demonstrated activity
